Source: patent publication US10087188B2, “Benzamide imidazopyrazine Btk inhibitors” (MERCK SHARP & DOHME CORP., priority 2014, dated 2018)
Where two headings read alike, the source gives them in different places.

Tests used:
[1] = test system: HeLa cells; assay: [3H] Adenosine uptake assay; type: cell-based; conditions: accumulation of tritiated adenosine into HeLa cells, compound concentration range 10 μM to 0.032 nM, read-out: ADU inhibition IC50 (adenosine uptake inhibition potency)
Method: Compounds are also screen in an adenosine uptake functional cellular assay using the protocol described below:
[^3H] Adenosine Uptake Assay Methods
Adenosine uptake activity was determined by monitoring the accumulation of tritiated adenosine into HeLa cells (ATCC catalog #CCL-2) using a PMT-based radiometric detection instrument. […] These cells were incubated overnight at 37° C. in a humidified atmosphere with 5% (v/v) CO2. After this time the growth medium was removed and replaced with 40 μL assay medium comprising: Hanks balanced salts solution (HBSS; Thermo Fisher Catalog #SH30268.01)+5% (v/v) FBS. Compound stock solutions in DMSO were diluted in assay medium to 2.5× final compound concentration maintaining a constant DMSO concentration of 0.25% (v/v). 40 μL of compound in assay medium was dispensed into individual wells of the Cytostar-T plates and the plates were incubated for 30 minutes under ambient laboratory conditions. Following this incubation, 20 μL of 500 nM[^3H] adenosine (American Radiolabeled Chemicals Inc. Catalog #ART0287) in assay medium was added and incubated for a further 60 minutes under ambient laboratory conditions. The amount of radiolabel accumulation was then determined using a Perkin Elmer Topcount NXT microplate reader. In brief, HeLa cells adhere to the bottom of the Cytostar-T plate, uptake of [^3H]adenosine into these cells brings the radiolabel into sufficient proximity to excite the scintillant in the base of the plates. These events are captured by single PMT, time-resolved coincidence counting. IC50 values were determined by 4 parameter robust fit of counts per second values vs. (Log10) compound concentrations.

[2] = biological target: BTK enzyme (recombinant full-length BTK, hBTK) (Homo sapiens (Human), UniProt Q06187); assay: Btk enzyme activity assay, LANCE TR-FRET; type: biochemical; conditions: 50 pM hBTK, 2 μM biotin-A5-peptide, 25 μM ATP; 60 minute compound & enzyme incubation; read-out: BTK binding IC50
Method: Btk Enzyme Activity Assay Methods
BTK enzymatic activity was determined with the LANCE (Lanthanide Chelate Excite) TR-FRET (Time-resolved fluorescence resonance energy transfer) assay. […] After 60 minutes incubation with detection reagents, reaction plates were read on a PerkinElmer EnVision plate reader using standard TR-FRET protocol.

BTK enzyme (recombinant full-length BTK, hBTK), sequence (Q06187 whole entry): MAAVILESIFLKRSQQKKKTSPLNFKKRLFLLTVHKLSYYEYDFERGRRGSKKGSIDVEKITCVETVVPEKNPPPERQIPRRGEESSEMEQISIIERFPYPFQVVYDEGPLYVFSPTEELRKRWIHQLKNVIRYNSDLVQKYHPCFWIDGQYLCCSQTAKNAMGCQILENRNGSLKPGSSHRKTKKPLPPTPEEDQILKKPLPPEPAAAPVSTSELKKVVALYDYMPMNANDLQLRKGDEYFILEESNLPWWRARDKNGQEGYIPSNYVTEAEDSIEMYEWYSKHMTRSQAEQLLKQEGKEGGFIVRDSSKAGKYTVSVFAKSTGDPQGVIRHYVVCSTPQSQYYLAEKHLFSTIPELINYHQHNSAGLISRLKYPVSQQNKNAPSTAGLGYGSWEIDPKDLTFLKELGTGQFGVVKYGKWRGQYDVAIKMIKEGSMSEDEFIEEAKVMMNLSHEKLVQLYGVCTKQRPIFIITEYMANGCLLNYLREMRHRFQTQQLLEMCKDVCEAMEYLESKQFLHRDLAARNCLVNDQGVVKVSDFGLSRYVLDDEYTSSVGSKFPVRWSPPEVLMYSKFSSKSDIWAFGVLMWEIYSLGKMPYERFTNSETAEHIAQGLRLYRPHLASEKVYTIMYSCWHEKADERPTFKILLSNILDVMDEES

Row | Structure (SMILES) | IC50 ([1]; Homo sapiens, HeLa) [nM] | IC50 [2] [nM] | IC50 [1] [nM]
1 | CCOc1cc(C(=O)Nc2cc(C(F)(F)F)ccn2)ccc1-c1nc(C23CCC(C(=O)O)(CC2)C2CC23)n2ccnc(N)c12 (stereo not shown) [Example 100, 5-[8-amino-1-(2-ethoxy-4-{[4-(trifluoromethyl)pyridin-2-yl]carbamoyl}phenyl)imidazo[1,5-a]pyrazin-3-yl]tricyclo[3.2.2.0~2,4~] nonane-1-carboxylic acid] | 4720 | 0.54 | –
2 | CC(C)C1(C(=O)O)CCC(C)(c2nc(-c3ccc(C(=O)Nc4cc(C(F)(F)F)ccn4)cc3)c3c(N)nccn23)C1 (stereo not shown) [Example 143, 3-[8-amino-1-(4-{[4-(trifluoromethyl)pyridin-2-yl]carbamoyl}phenyl)imidazo[1,5-a]pyrazin-3-yl]-3-methyl-1-(1-methylethyl)cyclopentane-carboxylic acid] | – | 0.72 | 4010
3 | C[C@]1(C(=O)O)CC[C@H](N2CCO[C@@H](c3nc(-c4ccc(C(=O)Nc5cc(C(F)F)ccn5)cc4)c4c(N)ncc(Cl)n34)C2)CC1 (stereo in doubt) [Example 196, trans-4-{(2R)-2-[8-amino-5-chloro-1-(4-{[4-(difluoromethyl)pyridin-2-yl]carbamoyl}phenyl)imidazo [1,5-a]pyrazin-3-yl]morpholin-4-yl}-1-methylcyclohexanecarboxylic acid] | – | 7.5 | 4440
4 | Nc1nccn2c([C@@H]3C[C@@H]3C(=O)O)nc(-c3ccc(C(=O)Nc4cc(C(F)(F)F)ccn4)cc3)c12 [Example 167, (1S,2R)-2-[8-amino-1-(4-{[4-(trifluoromethyl)pyridin-2-yl]carbamoyl}phenyl)imidazo[1,5-a]pyrazin-3-yl]cyclopropane-carboxylic acid] | 10000 | 760 | –
5 | CCOc1cc(C(=O)Nc2cc(C(F)(F)F)ccn2)ccc1-c1nc([C@@H]2CC[C@@](C(=O)O)(C(C)C)C2)n2c(Cl)cnc(N)c12 [Example 109, (1S,3R)-3-[8-amino-5-chloro-1-(2-ethoxy-4-{[4-(trifluoromethyl)pyridin-2-yl]carbamoyl}phenyl)imidazo[1,5-a]pyrazin-3-yl]-1-(1-methylethyl)cyclo-pentanecarboxylic acid] | 6840 | 0.64 | –
6 | CCOc1cc(C(=O)Nc2cc(C(F)(F)F)ccn2)ccc1-c1nc(C23CCC(C(=O)O)(CC2O)C(O)C3)n2ccnc(N)c12 (stereo not shown) [Example 174, 4-(8-amino-1-(2-ethoxy-4-((4-(trifluoromethyl)pyridin-2-yl)carbamoyl)phenyl)imidazo[1,5-a]pyrazin-3-yl)-2,5-dihydroxybicyclo[2.2.2]octane-1-carboxylic acid] | 10000 | 3.9 | –
7 | COc1cc(C(=O)Nc2cc(C(F)(F)F)ccn2)ccc1-c1nc([C@H]2CN(C(=O)C34CC(C(=O)O)(C3)C4)[C@@H](C)CO2)n2ccnc(N)c12 [Example 177, 3-({(2R,5S)-2-[8-amino-1-(2-methoxy-4-{[4-(trifluoromethyl)pyridin-2-yl]carbamoyl}phenyl)imidazo [1,5-a]pyrazin-3-yl]-5-methylmorpholin-4-yl}carbonyl)bicyclo[1.1.1] pentane-1-carboxylic acid] | 10000 | 0.76 | –
8 | CCOc1cc(C(=O)Nc2cc(C(F)(F)F)ccn2)cc(F)c1-c1nc([C@]2(C)CC[C@@](C)(C(=O)O)CC2)n2ccnc(N)c12 [Example 119, trans-4-[8-amino-1-(2-ethoxy-6-fluoro-4-{[4-(trifluoromethyl)pyridin-2-yl]carbamoyl}phenyl)imidazo[1,5-a]pyrazin-3-yl]-1,4-dimethylcyclohexane-carboxylic acid] | 10000 | 0.96 | –
9 | CCOc1cc(C(=O)Nc2cc(C(F)(F)F)ccn2)ccc1-c1nc([C@@H]2CC[C@@H](C(=O)O)O2)n2ccnc(N)c12 [Example 117, (2S,5S)-5-[8-amino-1-(2-ethoxy-4-{[4-(trifluoromethyl)pyridin-2-yl]carbamoyl}phenyl)imidazo[1,5-a]pyrazin-3-yl]tetrahydrofuran-2-carboxylic acid] | – | 8.7 | 3050
10 | CCOc1cc(C(=O)Nc2cc(C(F)(F)F)ccn2)ccc1-c1nc([C@H]2CC[C@](C(=O)O)(C(C)C)C2)n2c(Cl)cnc(N)c12 [Example 110, (1R,3S)-3-[8-amino-5-chloro-1-(2-ethoxy-4-{[4-(trifluoromethyl)pyridin-2-yl]carbamoyl}phenyl)imidazo[1,5-a]pyrazin-3-yl]-1-(1-methylethyl) cyclopentane-carboxylic acid] | 4750 | 2.1 | –
11 | CC1(C(=O)O)CCCC(c2nc(-c3ccc(C(=O)Nc4cc(C5CC5)ccn4)cc3)c3c(N)nccn23)C1 (stereo not shown) [Example 153, 3-(8-amino-1-{4-[(4-cyclopropylpyridin-2-yl)carbamoyl]phenyl}imidazo[1,5-a]pyrazin-3-yl)-1-methylcyclohexane-carboxylic acid] | 2480 | 2.6 | –
12 | CC1(C(=O)O)CCC(C)(c2nc(-c3ccc(C(=O)Nc4cc(C(F)(F)F)ccn4)cc3Cl)c3c(N)nccn23)CC1 (stereo not shown) [Example 133, 4-[8-amino-1-(2-chloro-4-{[4-(trifluoromethyl)pyridin-2-yl]carbamoyl}phenyl)imidazo[1,5-a]pyrazin-3-yl]-1,4-dimethylcyclohexane-carboxylic acid] | 5230 | 1 | –
13 | CCOc1cc(C(=O)Nc2cc(C(F)(F)F)ccn2)ccc1-c1nc(C23CCC(C(=O)O)(CC2)CC3)n2c(F)cnc(N)c12 [Example 173, 4-[8-amino-1-(2-ethoxy-4-{[4-(trifluoromethyl)pyridin-2-yl]carbamoyl}phenyl)-5-fluoroimidazo[1,5-a]pyrazin-3-yl]bicyclo[2.2.2] octane-1-carboxylic acid] | 10000 | 2 | –
14 | C[C@H]1CO[C@@H](c2nc(-c3ccc(C(=O)Nc4cc(C5CC5)ccn4)cc3F)c3c(N)ncc(Cl)n23)CN1[C@H]1CC[C@](C)(C(=O)O)CC1 [Example 209, trans-4-[(2R,5S)-2-(8-amino-5-chloro-1-{4-[(4-cyclopropylpyridin-2-yl)carbamoyl]-2-fluorophenyl}imidazo[1,5-a]pyrazin-3-yl)-5-methylmorpholin-4-yl]-1-methylcyclohexanecarboxylic acid] | 3160 | 0.76 | –
15 | CCOc1cc(C(=O)Nc2cc(C(F)(F)F)n(C)n2)ccc1-c1nc([C@@H]2CC[C@@](C(=O)O)(C(C)C)C2)n2ccnc(N)c12 [Example 52, (1S,3R)-3-[8-amino-1-(2-ethoxy-4-{[1-methyl-5-(trifluoromethyl)-1H-pyrazol-3-yl]carbamoyl}phenyl)imidazo[1,5-a]pyrazin-3-yl]-1-(1-methylethyl) cyclopentane-carboxylic acid] | 10000 | 9 | –
16 | C[C@@]1(C(=O)O)CCC[C@H](c2nc(-c3ccc(C(=O)Nc4cc(C5CC5)ccn4)cc3)c3c(N)nccn23)C1 [Example 159, (1R,3S)-3-(8-amino-1-{4-[(4-cyclopropylpyridin-2-yl)carbamoyl]phenyl}imidazo[1,5-a]pyrazin-3-yl)-1-methylcyclohexane-carboxylic acid] | 3020 | 1.1 | –
17 | Nc1nccn2c(N3CC[C@H](C(=O)O)C3)nc(-c3ccc(C(=O)Nc4cc(C(F)(F)F)ccn4)cc3)c12 [Example 39, (3S)-1-[8-amino-1-(4-{[4-(trifluoromethyl)pyridin-2-yl]carbamoyl}phenyl)imidazo[1,5-a]pyrazin-3-yl]pyrrolidine-3-carboxylic acid] | 10000 | 0.91 | –
